Measurements reported in ChEMBL document CHEMBL5030523, “Mechanisms of the Antiproliferative and Antitumor Activity of Novel Telomerase-Carbonic Anhydrase Dual-Hybrid Inhibitors” (J Med Chem, 2021).
The source made the active and inactive calls. The calls are words filed in the database; no cut-off is given here.

How the values were obtained:
[1] = molecular target: T1, Telomerase reverse transcriptase (Homo sapiens, UniProt O14746); assay: Inhibition of telomerase in human COLO 205 cells assessed as shortening of telomere length at 30 uM by measured after 56 days qPCR relative to control; assay type: cell-based; details: time 56.0 day
T1 sequence (O14746 whole entry): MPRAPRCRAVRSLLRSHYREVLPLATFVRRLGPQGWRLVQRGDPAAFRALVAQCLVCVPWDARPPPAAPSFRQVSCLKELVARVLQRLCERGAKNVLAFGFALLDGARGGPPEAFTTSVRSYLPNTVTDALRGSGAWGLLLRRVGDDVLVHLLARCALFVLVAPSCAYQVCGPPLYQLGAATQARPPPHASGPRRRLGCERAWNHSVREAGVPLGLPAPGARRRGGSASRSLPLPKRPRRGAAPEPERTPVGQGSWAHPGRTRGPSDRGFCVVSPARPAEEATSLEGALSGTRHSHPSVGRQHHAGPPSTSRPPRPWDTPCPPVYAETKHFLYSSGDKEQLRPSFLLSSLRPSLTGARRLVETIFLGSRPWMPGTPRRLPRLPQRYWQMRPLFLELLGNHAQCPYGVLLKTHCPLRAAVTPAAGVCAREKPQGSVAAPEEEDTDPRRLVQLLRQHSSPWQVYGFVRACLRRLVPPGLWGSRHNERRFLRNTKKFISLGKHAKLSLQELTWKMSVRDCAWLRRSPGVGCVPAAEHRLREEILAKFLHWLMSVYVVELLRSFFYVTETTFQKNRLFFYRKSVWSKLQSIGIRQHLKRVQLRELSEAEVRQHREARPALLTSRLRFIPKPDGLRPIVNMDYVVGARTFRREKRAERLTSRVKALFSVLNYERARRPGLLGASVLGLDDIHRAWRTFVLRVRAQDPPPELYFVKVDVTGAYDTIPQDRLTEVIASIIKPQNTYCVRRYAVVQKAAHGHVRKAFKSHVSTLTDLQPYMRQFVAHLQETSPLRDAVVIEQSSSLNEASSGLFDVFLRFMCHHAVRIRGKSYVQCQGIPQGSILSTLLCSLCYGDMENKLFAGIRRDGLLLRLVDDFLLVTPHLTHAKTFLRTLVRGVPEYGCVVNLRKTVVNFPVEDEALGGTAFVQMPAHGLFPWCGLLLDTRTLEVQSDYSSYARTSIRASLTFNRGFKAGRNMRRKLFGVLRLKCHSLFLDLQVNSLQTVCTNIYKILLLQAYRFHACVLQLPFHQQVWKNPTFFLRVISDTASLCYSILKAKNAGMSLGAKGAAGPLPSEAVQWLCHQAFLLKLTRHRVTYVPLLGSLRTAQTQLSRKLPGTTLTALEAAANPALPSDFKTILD

[2] = tested on: COLO 205; assay: Induction of apoptosis in human COLO 205 cells assessed as viable cells incubated for 56 days by Annexin V/FITC and PI staining based flow cytometry analysis (reference value: 94.61 %); assay type: functional; details: time 56 day
[3] = molecular target: T1, Telomerase reverse transcriptase; assay: Inhibition of telomerase in human SW-620 cells by TRAP assay; assay type: cell-based
[4] = tested on: COLO 205; assay: Induction of apoptosis in human COLO 205 cells assessed as early apoptotic cells incubated for 44 days by Annexin V/FITC and PI staining based flow cytometry analysis (reference value: 4.59 %); assay type: functional; details: time 44 day
[5] = tested on: COLO 205; assay: Induction of apoptosis in human COLO 205 cells assessed as late apoptotic cells incubated for 24 hrs by Annexin V/FITC and PI staining based flow cytometry analysis (reference value: 13.48 %); assay type: functional
[6] = tested on: COLO 205; assay: Antitumor activity against human COLO 205 cells xenografted in BALB/c nude mouse assessed as tumor growth inhibition at 50 mg/kg, sc administered as single dose measured after 3 days relative to control; assay type: functional; details: COLO 205, sc, 72 h, time 3 day, read-out: TGI
[7] = tested on: COLO 205; assay: Induction of apoptosis in human COLO 205 cells assessed as viable cells incubated for 12 hrs by Annexin V/FITC and PI staining based flow cytometry analysis (reference value: 71.63 %); assay type: functional
[8] = tested on: COLO 205; assay: Induction of apoptosis in human COLO 205 cells assessed as early apoptotic cells incubated for 56 days by Annexin V/FITC and PI staining based flow cytometry analysis (reference value: 4.1 %); assay type: functional; details: time 56 day
[9] = molecular target: T1, Telomerase reverse transcriptase; assay: Non-competitive inhibition of telomerase (unknown origin) assessed as decrease in Km at 1 uM using […] by Michaelis-Menten analysis relative to control; details: COLO 205
[10] = molecular target: T1, Telomerase reverse transcriptase; assay: Inhibition of telomerase in human COLO 205 cells by TRAP assay; assay type: cell-based
[11] = tested on: COLO 205; assay: Effect on TERC mRNA expression in human COLO 205 cells measured after 72 hrs by qRT-PCR analysis; assay type: functional, cell-based
[12] = tested on: COLO 205; assay: Induction of apoptosis in human COLO 205 cells assessed as late apoptotic cells incubated for 12 hrs by Annexin V/FITC and PI staining based flow cytometry analysis (reference value: 13.48 %); assay type: functional
[13] = tested on: COLO 205; assay: Induction of apoptosis in human COLO 205 cells assessed as necrotic cells incubated for 24 hrs by Annexin V/FITC and PI staining based flow cytometry analysis (reference value: 0.14 %); assay type: functional
[14] = tested on: COLO 205; assay: Cell cycle arrest in human COLO 205 cells assessed as accumulation G2/M phase incubated for 24 hrs by propidium iodide staining based flow cytometry analysis (reference value: 0.79 %); assay type: functional
[15] = molecular target: T1, Telomerase reverse transcriptase; assay: Inhibition of telomerase in human HCT-116 cells by TRAP assay; assay type: cell-based
[16] = tested on: COLO; assay: In vivo inhibition of telomerase in BALB/c mouse xenografted with human COLO 205 cells at 50 mg/kg, sc relative to control; assay type: functional, organism-based
[17] = molecular target: Carbonic anhydrase 5A, mitochondrial (Homo sapiens, UniProt P35218); assay: Inhibition of human carbonic anhydrase 5A by stopped-flow CO2 hydration assay
Carbonic anhydrase 5A, mitochondrial, sequence (P35218 whole entry): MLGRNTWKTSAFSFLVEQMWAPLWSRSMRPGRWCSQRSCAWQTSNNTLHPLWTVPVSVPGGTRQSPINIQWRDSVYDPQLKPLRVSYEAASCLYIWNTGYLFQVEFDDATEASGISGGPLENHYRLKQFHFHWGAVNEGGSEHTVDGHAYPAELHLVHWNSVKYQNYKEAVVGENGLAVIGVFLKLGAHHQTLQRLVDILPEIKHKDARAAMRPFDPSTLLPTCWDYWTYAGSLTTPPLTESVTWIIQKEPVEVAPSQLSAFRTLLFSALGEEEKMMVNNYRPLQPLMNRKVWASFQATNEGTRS

[18] = tested on: COLO; assay: In vivo inhibition of telomerase in BALB/c mouse xenografted with human COLO 205 cells assessed as reduction in telomere length at 50 mg/kg, sc; assay type: functional, organism-based
[19] = tested on: COLO 205; assay: Antitumor activity against human COLO 205 cells xenografted in BALB/c nude mouse assessed as tumor growth inhibition at 50 mg/kg, sc administered as single dose measured after 5 days relative to control; assay type: functional; details: COLO 205, sc, 120 h, time 5 day, read-out: TGI
[20] = tested on: COLO 205; assay: Antitumor activity against human COLO 205 cells xenografted in BALB/c nude mouse assessed as change in tumor volume at 50 mg/kg, sc administered as single dose measured after 5 days (reference value: 270.1 +/- 52.1 mm3); assay type: functional; details: time 5 day

| inhibition [1] [%] | IC50 [3] [µM] | IC90 [3] [µM] | fold change (FC) [9] | IC50 [10] [µM] | IC90 [10] [µM] | IC50 [15] [µM] | IC90 [15] [µM] | Ki [17] [µM] | SMILES | Activity [2] [%] | Activity [4] [%] | Activity [5] [%] | Activity [7] [%] | Activity [8] [%] | Activity [11] | Activity [12] [%] | Activity [13] [%] | Activity [14] [%] | inhibition [16] | other results |
| --- | --- | --- | --- | --- | --- | --- | --- | --- | --- | --- | --- | --- | --- | --- | --- | --- | --- | --- | --- | --- |
| 4.5 | 3 | 35.1 | 3.4 | 0.9 | 9.1 | 0.85 | 10.2 | 3.24 | Cc1cn([C@H]2C[C@@H](n3cc(CNC(=O)Nc4cccc(S(N)(=O)=O)c4)nn3)[C@@H](CO)O2)c(=O)[nH]c1=O | 5.76 | 13.48 | 1.86 | 81.3 | 29.22 | inactive | 6.23 | 0.14 | 11.94 | Active | inhibition in vivo at 50 mg/kg [6]: 32.1%; inhibition [18]: Active |
| 4.5 | 8.6 | 33.2 | 2.3 | 5.9 | 29.1 | 5.6 | 31 | 4.8 | Cc1cn([C@H]2C[C@@H](n3cc(COC(=O)c4ccc(S(N)(=O)=O)cc4)nn3)[C@@H](CO)O2)c(=O)[nH]c1=O | 26.64 | 10.54 | 3.13 | 84.8 | 27.33 | inactive | 6.8 | 0.12 | 15.55 | Active | inhibition in vivo at 50 mg/kg [19]: 33%; Activity [20]: 181.4 mm3 |
